Assay results as given in US10329254B2, “Process for the preparation of 6-chloro-2,3,4,9-tetrahydro-1H-carbazole-1-carboxamide and intermediates thereof” (AOP ORPHAN PHARMACEUTICALS AG, priority 2011, dated 2019).
One block for each compound: values may come before it.

Tests used:
Sirt1 = target: T1, Sirt1 (Homo sapiens, UniProt Q96EB6); settings: known from WO2005026112; cited from earlier work
T1 sequence (Q96EB6 1-747): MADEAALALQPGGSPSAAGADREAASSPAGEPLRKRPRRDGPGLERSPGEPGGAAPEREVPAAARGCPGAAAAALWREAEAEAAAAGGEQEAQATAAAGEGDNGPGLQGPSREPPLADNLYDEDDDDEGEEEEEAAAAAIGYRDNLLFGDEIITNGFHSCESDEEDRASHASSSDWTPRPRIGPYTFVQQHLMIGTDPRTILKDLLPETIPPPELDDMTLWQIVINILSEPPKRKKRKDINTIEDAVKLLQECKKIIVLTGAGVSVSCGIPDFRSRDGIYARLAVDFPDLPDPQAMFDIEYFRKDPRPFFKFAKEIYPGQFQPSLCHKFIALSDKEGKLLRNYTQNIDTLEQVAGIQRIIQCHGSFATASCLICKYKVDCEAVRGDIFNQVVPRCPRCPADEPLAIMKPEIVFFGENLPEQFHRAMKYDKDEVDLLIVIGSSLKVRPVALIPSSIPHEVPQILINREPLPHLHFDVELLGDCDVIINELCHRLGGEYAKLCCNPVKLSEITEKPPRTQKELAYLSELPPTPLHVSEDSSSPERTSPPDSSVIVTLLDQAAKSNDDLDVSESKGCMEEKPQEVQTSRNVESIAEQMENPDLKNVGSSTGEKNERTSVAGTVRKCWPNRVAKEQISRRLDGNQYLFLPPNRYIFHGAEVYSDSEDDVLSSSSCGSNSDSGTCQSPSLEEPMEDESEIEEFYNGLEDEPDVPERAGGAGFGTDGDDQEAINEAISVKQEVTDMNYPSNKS

[1] = Form A stability tests under simulated drug substance storage conditions; format: physicochemical
Description: Tables 3 and 4: Form A stability data: Compound (I) in the form of Form A was packed in double bagged polythene bags (fastened with cable/security ties) and placed inside 3.6 L Curtec kegs (HDPE) to simulate typical drug substance storage conditions. Stability tests were performed at 40° C./75% RH (table 3) and 25° C./60% RH (table 4).

[2] = Hygroscopicity (absorption-desorption spectrum); format: physicochemical; settings: FIG. 2 / FIG. 7
Source text: FIG. 2: Absorption-Desorption spectrum of form A FIG. 7: Absorption-desorption spectrum of form B

Compound: NC(=O)C1CCCc2c1[nH]c1ccc(Cl)cc21 (racemic) [Compound (I), rac-6-Chloro-2,3,4,9-tetrahydro-1H-carbazole-1-carboxamide]
anti Sirt1 activity (Sirt1): anti Sirt1 activity

DSC (conforms to polymorph A) ([1]; 25° C./60% RH, t = 0): Conforms
Impurity content (by HPLC), no single impurity greater than 0.50% area ([1]; 25° C./60% RH, t = 0): Conforms
XRPD (conforms to polymorph) ([1]; 25° C./60% RH, t = 0): Conforms
Assay (by HPLC) ([1]; 25° C./60% RH, t = 0, on an anhydrous and solvent free basis, spec 98.0-102.0% w/w): 99.7% w/w
Water content (by KF titration) ([1]; 25° C./60% RH, t = 0, spec: not more than 0.5% w/w): <0.1% w/w
Impurity content (by HPLC), total impurities ([1]; 25° C./60% RH, t = 0, spec: not more than 2.0% area): 0.31% area
Description ([1]; 25° C./60% RH, t = 0, spec: white to off-white solid): Off-white
Assay (by HPLC) ([1]; 25° C./60% RH, t = 1 month): 99.0% w/w
Description ([1]; 25° C./60% RH, t = 1 month): Off-white
Impurity content (by HPLC), no single impurity greater than 0.50% area ([1]; 25° C./60% RH, t = 1 month): Conforms
Impurity content (by HPLC), total impurities ([1]; 25° C./60% RH, t = 1 month): 0.54% area
Water content (by KF titration) ([1]; 25° C./60% RH, t = 1 month): <0.1% w/w
Assay (by HPLC) ([1]; 25° C./60% RH, t = 3 months): 99.1% w/w
Description ([1]; 25° C./60% RH, t = 3 months): Off-white
Impurity content (by HPLC), no single impurity greater than 0.50% area ([1]; 25° C./60% RH, t = 3 months): Conforms
Impurity content (by HPLC), total impurities ([1]; 25° C./60% RH, t = 3 months): 0.22% area
Water content (by KF titration) ([1]; 25° C./60% RH, t = 3 months): 0.2% w/w
Assay (by HPLC) ([1]; 25° C./60% RH, t = 6 months): 98.7% w/w
DSC (conforms to polymorph A) ([1]; 25° C./60% RH, t = 6 months): Conforms
Description ([1]; 25° C./60% RH, t = 6 months): Off-white
Impurity content (by HPLC), no single impurity greater than 0.50% area ([1]; 25° C./60% RH, t = 6 months): Conforms
Impurity content (by HPLC), total impurities ([1]; 25° C./60% RH, t = 6 months): 0.32% area
Water content (by KF titration) ([1]; 25° C./60% RH, t = 6 months): 0.1% w/w
XRPD (conforms to polymorph) ([1]; 25° C./60% RH, t = 6 months): Conforms
Assay (by HPLC) ([1]; 25° C./60% RH, t = 9 months): 99.4% w/w
Description ([1]; 25° C./60% RH, t = 9 months): Off-white
Impurity content (by HPLC), no single impurity greater than 0.50% area ([1]; 25° C./60% RH, t = 9 months): Conforms
Impurity content (by HPLC), total impurities ([1]; 25° C./60% RH, t = 9 months): 0.29% area
Water content (by KF titration) ([1]; 25° C./60% RH, t = 9 months): <0.1% w/w
Assay (by HPLC) ([1]; 25° C./60% RH, t = 12 months): 99.0% w/w
DSC (conforms to polymorph A) ([1]; 25° C./60% RH, t = 12 months): Conforms
Description ([1]; 25° C./60% RH, t = 12 months): Off-white
Impurity content (by HPLC), no single impurity greater than 0.50% area ([1]; 25° C./60% RH, t = 12 months): Conforms
Impurity content (by HPLC), total impurities ([1]; 25° C./60% RH, t = 12 months): 0.27% area
Water content (by KF titration) ([1]; 25° C./60% RH, t = 12 months): 0.1% w/w
XRPD (conforms to polymorph) ([1]; 25° C./60% RH, t = 12 months): Conforms
Assay (by HPLC) ([1]; 25° C./60% RH, t = 18 months): 98.6% w/w
Description ([1]; 25° C./60% RH, t = 18 months): Off-white
Impurity content (by HPLC), no single impurity greater than 0.50% area ([1]; 25° C./60% RH, t = 18 months): Conforms
Impurity content (by HPLC), total impurities ([1]; 25° C./60% RH, t = 18 months): 0.26 % area
Water content (by KF titration) ([1]; 25° C./60% RH, t = 18 months): 0.1% w/w
Assay (by HPLC) ([1]; 25° C./60% RH, t = 24 months): 98.2% w/w
DSC (conforms to polymorph A) ([1]; 25° C./60% RH, t = 24 months): Conforms
Description ([1]; 25° C./60% RH, t = 24 months): Off-white
Impurity content (by HPLC), no single impurity greater than 0.50% area ([1]; 25° C./60% RH, t = 24 months): Conforms
Impurity content (by HPLC), total impurities ([1]; 25° C./60% RH, t = 24 months): 0.39% area
Water content (by KF titration) ([1]; 25° C./60% RH, t = 24 months): <0.1% w/w
XRPD (conforms to polymorph) ([1]; 25° C./60% RH, t = 24 months): Conforms
DSC (conforms to polymorph A) ([1]; 40° C./75% RH, t = 0): Conforms
Impurity content (by HPLC), no single impurity greater than 0.50% area ([1]; 40° C./75% RH, t = 0): Conforms
XRPD (conforms to polymorph A) ([1]; 40° C./75% RH, t = 0): Conforms
Assay (by HPLC) ([1]; 40° C./75% RH, t = 0, anhydrous and solvent free-basis, spec 98.0-102.0% w/w): 99.7% w/w
Water content (by KF titration) ([1]; 40° C./75% RH, t = 0, spec: not more than 0.5% w/w): <0.1% w/w
Impurity content (by HPLC), total impurities ([1]; 40° C./75% RH, t = 0, spec: not more than 2.0% area): 0.31% area
Description ([1]; 40° C./75% RH, t = 0, spec: white to off-white solid): Off-white
Description ([1]; 40° C./75% RH, t = 1 month): Off-white
Impurity content (by HPLC), no single impurity greater than 0.50% area ([1]; 40° C./75% RH, t = 1 month): Conforms
Impurity content (by HPLC), total impurities ([1]; 40° C./75% RH, t = 1 month): 0.25% area
Water content (by KF titration) ([1]; 40° C./75% RH, t = 1 month): <0.1% w/w
Assay (by HPLC) ([1]; 40° C./75% RH, t = 1 month, anhydrous and solvent free-basis): 98.9% w/w
Description ([1]; 40° C./75% RH, t = 3 months): Off-white
Impurity content (by HPLC), no single impurity greater than 0.50% area ([1]; 40° C./75% RH, t = 3 months): Conforms
Impurity content (by HPLC), total impurities ([1]; 40° C./75% RH, t = 3 months): 0.25% area
Water content (by KF titration) ([1]; 40° C./75% RH, t = 3 months): 0.4% w/w
Assay (by HPLC) ([1]; 40° C./75% RH, t = 3 months, anhydrous and solvent free-basis): 99.4% w/w
Description ([1]; 40° C./75% RH, t = 6 months): Off-white
Impurity content (by HPLC), no single impurity greater than 0.50% area ([1]; 40° C./75% RH, t = 6 months): Conforms
Impurity content (by HPLC), total impurities ([1]; 40° C./75% RH, t = 6 months): 0.33% area
Water content (by KF titration) ([1]; 40° C./75% RH, t = 6 months): 0.1% w/w
XRPD (conforms to polymorph A) ([1]; 40° C./75% RH, t = 6 months): Conforms
Assay (by HPLC) ([1]; 40° C./75% RH, t = 6 months, anhydrous and solvent free-basis): 99.0% w/w
Stability over time ([1]; Tables 3 and 4 (40° C./75% RH and 25° C./60% RH)): stable over time
Compound: NC(=O)C1CCCc2c1[nH]c1ccc(Cl)cc21 (centres unmarked) [Form A, 6-Chloro-2,3,4,9-tetrahydro-1H-carbazole-1-carboxamide]

Hygroscopicity [2]: non hygroscopic
Compound: NC(=O)C1CCCc2c1[nH]c1ccc(Cl)cc21 (centres unmarked) [Form B, 6-Chloro-2,3,4,9-tetrahydro-1H-carbazole-1-carboxamide]
